Reference: ChEMBL document CHEMBL1133484 (Bioorg Med Chem Lett, 2000)
Starred links: 1 amine or outer side, 2 acyl side, 3 side chain; linkers in the order of their positions; H or OH if unused. Non-standard residues stand in square brackets, D forms with d. Residues, ends and D or L forms follow the SMILES beside them. *: point of attachment. X2 = O=C([C@@H]1C[C@@H](CCCc2ccccc2)CN1[*:1])[*:2]; X3 = O=C([C@@H]1C[C@@H](CCc2ccccc2)CN1[*:1])[*:2]; Pro(4R-Bn) = O=C(O)[C@@H]1C[C@@H](Cc2ccccc2)CN1; CH2(1-naphthyl) = c1ccc2c(C*)cccc2c1; mXylylene = c1cc(C[*:1])cc(C[*:2])c1; oXylylene = c1ccc(C[*:2])c(C[*:1])c1; Glutaryl = O=C(CCCC(=O)[*:2])[*:1]; Hyp = O=C(O)[C@@H]1C[C@@H](O)CN1; Chg = N[C@H](C(=O)O)C1CCCCC1; Nva = CCC[C@H](N)C(=O)O; X1 = c1ccc2cc(C*)ccc2c1; Ac3c = NC1(C(=O)O)CC1; Meb = Cc1ccc(C*)cc1; CF3 = FC(F)(F)*

Assays:
[1] = target: T1, NS3 (Hepatitis C virus, UniProt A3EZJ3); test: Inhibitory activity against NS3 protease complexed with NS4A cofactor peptide (NS3-4A pep); set-up: species or system Hepacivirus hominis
[2] = target: Chymotrypsinogen B (Homo sapiens, UniProt P17538); test: Compound was evaluated for its inhibitory activity against Chymotrypsinogen
[3] = target: T1, NS3; test: Compound was evaluated for its binding affinity against NS3 protease complexed with NS4A cofactor peptide (NS3-4A pep); set-up: species or system Hepacivirus hominis
[4] = target: Cathepsin B (Homo sapiens, UniProt P07858); test: Compound was evaluated for its inhibitory activity against cathepsin B
[5] = target: T2, Neutrophil elastase (Homo sapiens, UniProt P08246); test: Compound was evaluated for its inhibitory activity against human leukocyte elastase (HLE)
T2 sequence (P08246 whole entry): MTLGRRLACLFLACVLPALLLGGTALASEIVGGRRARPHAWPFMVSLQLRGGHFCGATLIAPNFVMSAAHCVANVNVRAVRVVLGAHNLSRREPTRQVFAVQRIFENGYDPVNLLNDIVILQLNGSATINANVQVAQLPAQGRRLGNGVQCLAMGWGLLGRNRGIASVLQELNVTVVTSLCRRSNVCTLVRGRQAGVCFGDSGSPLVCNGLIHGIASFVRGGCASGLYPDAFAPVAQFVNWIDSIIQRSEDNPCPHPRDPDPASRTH

T1 sequence (A3EZJ3 whole entry): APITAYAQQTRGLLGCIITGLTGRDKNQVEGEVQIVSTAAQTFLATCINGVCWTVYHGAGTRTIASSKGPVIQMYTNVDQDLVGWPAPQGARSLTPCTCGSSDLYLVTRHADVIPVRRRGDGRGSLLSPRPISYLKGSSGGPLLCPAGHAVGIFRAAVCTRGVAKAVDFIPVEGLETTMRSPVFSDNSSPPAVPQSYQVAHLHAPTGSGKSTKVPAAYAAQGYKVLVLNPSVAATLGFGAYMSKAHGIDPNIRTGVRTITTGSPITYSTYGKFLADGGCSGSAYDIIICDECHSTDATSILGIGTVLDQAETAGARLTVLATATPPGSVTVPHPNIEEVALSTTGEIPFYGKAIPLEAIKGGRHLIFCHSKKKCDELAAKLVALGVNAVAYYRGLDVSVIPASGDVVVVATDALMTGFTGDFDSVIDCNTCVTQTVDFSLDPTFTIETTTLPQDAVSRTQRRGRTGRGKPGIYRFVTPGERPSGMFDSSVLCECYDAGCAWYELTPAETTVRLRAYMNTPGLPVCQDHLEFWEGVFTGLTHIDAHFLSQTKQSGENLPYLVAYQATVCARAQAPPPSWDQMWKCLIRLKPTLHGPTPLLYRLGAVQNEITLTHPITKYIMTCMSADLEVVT
Chymotrypsinogen B, sequence (P17538 34-164 limits assumed, other chains not shown): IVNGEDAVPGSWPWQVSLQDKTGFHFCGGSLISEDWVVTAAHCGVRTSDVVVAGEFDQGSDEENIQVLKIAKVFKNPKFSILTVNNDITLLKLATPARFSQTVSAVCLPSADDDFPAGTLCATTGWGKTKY
Chymotrypsinogen B, sequence (P17538 167-263 limits assumed, other chains not shown): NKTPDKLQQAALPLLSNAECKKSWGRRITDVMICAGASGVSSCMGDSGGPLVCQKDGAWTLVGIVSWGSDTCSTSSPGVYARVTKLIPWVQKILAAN

Structure (SMILES)	IC50 [1] [µM]	also measured
CC[C@H](C)[C@H](NC(=O)[C@H](CC(=O)O)NC(=O)[C@H](CC(=O)O)NC(C)=O)C(=O)N[C@H](C(=O)N1CCC[C@H]1C(=O)NC1(C(=O)O)CC1)C(C)C (Ac-DDIVP[Ac3c]-OH)	54	
CCC[C@H](NC(=O)[C@@H]1CCCN1C(=O)[C@@H](NC(=O)[C@@H](NC(=O)[C@H](CC(=O)O)NC(=O)[C@H](CC(=O)O)NC(C)=O)[C@@H](C)CC)C(C)C)C(=O)O (Ac-DDIVP[Nva]-OH)	150	
CCC[C@H](NC(=O)[C@@H]1C[C@@H](OCc2cccc3ccccc23)CN1C(=O)[C@@H](NC(=O)[C@@H](NC(=O)[C@H](CC(=O)O)NC(=O)[C@H](CC(=O)O)NC(C)=O)[C@@H](C)CC)C(C)C)C(=O)O (Ac-DDIV[Hyp](CH2(1-naphthyl))[Nva]-OH)	0.39	
CCC[C@H](NC(=O)[C@@H]1C[C@@H](OCc2ccc(C)cc2)CN1C(=O)[C@@H](NC(=O)[C@@H](NC(=O)[C@H](CC(=O)O)NC(=O)[C@H](CC(=O)O)NC(C)=O)[C@@H](C)CC)C(C)C)C(=O)O (Ac-DDIV[Hyp](Meb)[Nva]-OH)	2.5	
CCC[C@H](NC(=O)[C@@H]1C[C@@H](OCc2ccc3ccccc3c2)CN1C(=O)[C@@H](NC(=O)[C@@H](NC(=O)[C@H](CC(=O)O)NC(=O)[C@H](CC(=O)O)NC(C)=O)[C@@H](C)CC)C(C)C)C(=O)O (Ac-DDIV[Hyp](X1)[Nva]-OH)	0.71	
CCC[C@H](NC(=O)[C@@H]1C[C@@H](OCc2cccc(C)c2)CN1C(=O)[C@@H](NC(=O)[C@@H](NC(=O)[C@H](CC(=O)O)NC(=O)[C@H](CC(=O)O)NC(C)=O)[C@@H](C)CC)C(C)C)C(=O)O (Ac-DDIV[Hyp](mXylylene)[Nva]-OH)	3.5	
CCC[C@H](NC(=O)[C@@H]1C[C@@H](OCc2ccccc2C)CN1C(=O)[C@@H](NC(=O)[C@@H](NC(=O)[C@H](CC(=O)O)NC(=O)[C@H](CC(=O)O)NC(C)=O)[C@@H](C)CC)C(C)C)C(=O)O (Ac-DDIV[Hyp](oXylylene)[Nva]-OH)	6.8	
CCC[C@H](NC(=O)[C@@H]1C[C@@H](O)CN1C(=O)[C@@H](NC(=O)[C@@H](NC(=O)[C@H](CC(=O)O)NC(=O)[C@H](CC(=O)O)NC(C)=O)[C@@H](C)CC)C(C)C)C(=O)O (Ac-DDIV[Hyp][Nva]-OH)	93	
CCC[C@H](NC(=O)[C@@H]1C[C@@H](Cc2ccccc2)CN1C(=O)[C@@H](NC(=O)[C@@H](NC(=O)[C@H](CC(=O)O)NC(=O)[C@H](CC(=O)O)NC(C)=O)[C@@H](C)CC)C(C)C)C(=O)O (Ac-DDIV[Pro(4R-Bn)][Nva]-OH)	60	
CCC[C@H](NC(=O)[C@@H]1C[C@@H](CCCc2ccccc2)CN1C(=O)[C@@H](NC(=O)[C@@H](NC(=O)[C@H](CC(=O)O)NC(=O)[C@H](CC(=O)O)NC(C)=O)[C@@H](C)CC)C(C)C)C(=O)O (Ac-DDIV[X2][Nva]-OH)	3.3	
CCC[C@H](NC(=O)[C@@H]1C[C@@H](CCc2ccccc2)CN1C(=O)[C@@H](NC(=O)[C@@H](NC(=O)[C@H](CC(=O)O)NC(=O)[C@H](CC(=O)O)NC(C)=O)[C@@H](C)CC)C(C)C)C(=O)O (Ac-DDIV[X3][Nva]-OH)	10	
CCC[C@H](NC(=O)[C@@H]1CCCN1C(=O)[C@@H](NC(=O)[C@@H](NC(=O)[C@@H](CC(=O)O)NC(=O)[C@H](CC(=O)O)NC(C)=O)[C@@H](C)CC)C(C)C)C(=O)C(F)(F)F (Ac-D[dD]IVP[Nva]-CF3)	22	
CCC[C@H](NC(=O)[C@@H]1CCCN1C(=O)[C@@H](NC(=O)[C@@H](NC(=O)[C@@H](CC(=O)O)NC(=O)[C@H](CC(=O)O)NC(C)=O)[C@@H](C)CC)C(C)C)C(=O)O (Ac-D[dD]IVP[Nva]-OH)	17	
CCC[C@H](NC(=O)[C@@H]1CCCN1C(=O)[C@@H](NC(=O)[C@@H](NC(=O)[C@@H](CCC(=O)O)NC(=O)[C@H](CC(=O)O)NC(C)=O)[C@@H](C)CC)C(C)C)C(=O)O (Ac-D[dE]IVP[Nva]-OH)	7.5	
CC(=O)N[C@@H](CC(=O)O)C(=O)N[C@H](CCC(=O)O)C(=O)N[C@H](C(=O)N[C@H](C(=O)N1C[C@H](OCc2cccc3ccccc23)C[C@H]1C(=O)NC1(C(=O)O)CC1)C(C)C)C1CCCCC1 (Ac-D[dE][Chg]V[Hyp](CH2(1-naphthyl))[Ac3c]-OH)	0.013	
CCC[C@H](NC(=O)[C@@H]1C[C@@H](OCc2ccc3ccccc3c2)CN1C(=O)[C@@H](NC(=O)[C@@H](NC(=O)[C@@H](CCC(=O)O)NC(=O)[C@H](CC(=O)O)NC(C)=O)C1CCCCC1)C(C)C)C(=O)O (Ac-D[dE][Chg]V[Hyp](X1)[Nva]-OH)	0.027	IC50 [2]: > 300 µM; Ki [3]: 0.003 µM; IC50 [4]: > 300 µM; IC50 [5]: > 300 µM
CC(=O)N[C@H](C(=O)N[C@H](C(=O)N1C[C@H](OCc2cccc3ccccc23)C[C@H]1C(=O)NC1(C(=O)O)CC1)C(C)C)C1CCCCC1 (Ac-[Chg]V[Hyp](CH2(1-naphthyl))[Ac3c]-OH)	3.5	IC50 [5]: > 600 µM
CC(C)[C@H](NC(=O)[C@@H](NC(=O)CCCC(=O)O)C1CCCCC1)C(=O)N1C[C@H](OCc2cccc3ccccc23)C[C@H]1C(=O)NC1(C(=O)O)CC1 (Glutaryl-[Chg]V[Hyp](CH2(1-naphthyl))[Ac3c]-OH)	0.9	
